Reference: publication PMC6017121, “New Thiazoline-Tetralin Derivatives and Biological Activity Evaluation” (Molecules : A Journal of Synthetic Chemistry and Natural …, 2018)

What was measured:
[1] = tested on: human breast adenocarcinoma cell line (MCF-7); assay: MTT cytotoxicity assay on MCF-7; format: cell-based; conditions: for IC50: MTT, 24 h incubation; for SI MCF-7 (selectivity index): NIH/3T3 versus MCF-7
Experimental: (§1) This is a colorimetric assay that measures the reduction of 3-(4,5-dimethylthiazol-2-yl)-2,4,diphenyltetrazolium bromide (MTT) by mitochondria. All final compounds were tested against human breast adenocarcinoma cell line (MCF-7), human lung carcinoma cell line (A549) and mouse embryooblast cell line (NIH/3T3) to determine their cytotoxic profile. Cancer cells were cultured in RPMI medium (Hyclone, Thermo Scientific, Waltham, MA, USA) at 37 °C in a humidified atmosphere of 95% air and 5% CO2. The studied cells were situated at 2 × 10^4 cells into each well of 96-well microtiter tissue culture plates (Nunc, Denmark) and incubated for 24 h. After that, test compounds were dissolved in DMSO and added to culture wells at varying concentrations (85–1000 µM). After a 24 h incubating period, […] MTT solution (5 mg/mL MTT powder in PBS) was added to each well and the cells were incubated for 4 h at 37 °C. The purple formazan crystals produced were dissolved in DMSO and the absorbance was read by ELISA reader (OD570 nm). The percent values of cell proliferations were calculated relative to controls, whose cell proliferations were accepted as 100% [47].

[2] = tested on: human lung carcinoma cell line (A549); assay: MTT cytotoxicity assay on A549; format: cell-based; conditions: for IC50: MTT, 24 h incubation; for SI A549 (selectivity index): NIH/3T3 versus A549
Experimental: as §1

MCF-7 cells [3] = assay: Annexin V-FITC/propidium iodide flow cytometry on MCF-7; format: cell-based, human; conditions: MCF-7 cell line, IC50 concentration; for % Early Apoptotic / % Late Apoptotic / % Necrotic / % Viable: 24 h
Experimental: (§2) Evaluation of apoptosis was carried out through the Annexin V-FITC Apoptosis Detection Kit from BD, Pharmingen, according to the manufacturer’s instruction. […] Then cells were rinsed with cold water twice and resuspended in Annexin V-FITC binding buffer at a concentration of 1 × 10^6 cells/mL. […] of Annexin V-FITC was used to stain the cells. After 15 min of incubation at 25 °C, the cell suspension was centrifugated for 5 min and cells were resuspended in Annexin V-FITC binding buffer. Propidium iodide ([…]) was added and the tubes were situated on ice and away from light. The fluorescence was measured using a flow cytometer. The results were analyzed by using FCSExpress software and represented as percentage of normal and apoptotic cells at various stages. […] The four areas in the diagrams stand for necrotic cells (Q1, positive for PI and negative for annexin/FITC, left square on the top), live cells (Q3, negative for annexin and PI, left square at the bottom), late apoptotic or necrotic cells (Q2, positive for annexin and PI, right square on the top) and apoptotic cells (Q4, negative for PI and positive for annexin, right square at the bottom), respectively. The experiment was repeated three times.

A549 cells [4] = assay: Annexin V-FITC/propidium iodide flow cytometry on A549; format: cell-based, human; conditions: A549 cell line, IC50 concentration; for % Early Apoptotic / % Late Apoptotic / % Necrotic / % Viable: 24 h
Experimental: as §2

A549 cells [5] = assay: DNA synthesis inhibition (BrdU) on A549
Experimental: The 5-bromo-2′-deoxy-uridine (BrdU) cell proliferation assay [48] was used to detect the proliferation of A549 and C6 cells. […] At the end of each day, the cells were labelled with 10 mL BrdU solution for 2 h and then fixed. Anti-BrdU-POD (100 mL) was added and incubated for 90 min. Finally, microtiter plates were washed with phosphate buffered saline (PBS) three times and the cells were incubated with substrate solution until the color was sufficient for photometric detection. […] The growth percentage was evaluated spectrophotometrically versus untreated controls with used cell viability of growth assay. Results for each spectrophotometrical measure were noticed as percent of growth inhibition. All experiments were done in triplicates.
Mean percent absorbance of untreated control cells were assumed 0%. […] Data points represent means for three independent wells ± SD. p < 0.05.

[6] = tested on: mouse embryoblast cell line (NIH/3T3); assay: MTT cytotoxicity assay on NIH/3T3 (healthy cells); format: cell-based; conditions: NIH3T3, 24 h incubation
Experimental: as §1

[7] = target: acetylcholinesterase (AChE) (Homo sapiens, UniProt P22303); assay: biochemical; conditions: 80 µg/mL (~160 µM)
Experimental: (§3) In order to determine the acetyl- and butyrylcholinesterase enzyme inhibitions, experiments were carried out by making some changes in the method developed by Ellman. Samples were prepared by dissolving in the appropriate solvent. Adding 20 μL enzyme solution (AChE or BuChE, 1 U/mL) and 10 μL sample solution to 2.4 mL buffer solution and it was incubated for 15 min at 37 °C. After incubation, 50 μL DTNB and 75 mM ATCI solution or 20 μL of 25 mM BTCI solution were added and allowed the mixture to incubate at room temperature for 30 min. For the control group, only 10 μL of solvent was added instead of the sample solution provided all protocols are the same. […] Experiments were run in triplicate. The inhibition fractions of AChE […] BuChE enzymes were calculated using the following equation:I(%) = 100 − ([…]) × 100

[8] = target: butyrylcholinesterase (BuChE) (Homo sapiens, UniProt P06276); assay: biochemical; conditions: 80 µg/mL (~160 µM)
Experimental: as §3

MCF-7 cells [9] = assay: DNA synthesis inhibition (BrdU) on MCF-7; conditions: for DNA synthesis inhibition on MCF-7 at IC50/2: IC50/2 concentration (4b 34.6 μM; 4d 36.9 μM, b49: 35.9 μM)
[10] = Homo sapiens, MCF7, 96 h, read-out: DNA synthesis inhibition on MCF-7 at IC50

butyrylcholinesterase (BuChE), sequence (P06276 29-602): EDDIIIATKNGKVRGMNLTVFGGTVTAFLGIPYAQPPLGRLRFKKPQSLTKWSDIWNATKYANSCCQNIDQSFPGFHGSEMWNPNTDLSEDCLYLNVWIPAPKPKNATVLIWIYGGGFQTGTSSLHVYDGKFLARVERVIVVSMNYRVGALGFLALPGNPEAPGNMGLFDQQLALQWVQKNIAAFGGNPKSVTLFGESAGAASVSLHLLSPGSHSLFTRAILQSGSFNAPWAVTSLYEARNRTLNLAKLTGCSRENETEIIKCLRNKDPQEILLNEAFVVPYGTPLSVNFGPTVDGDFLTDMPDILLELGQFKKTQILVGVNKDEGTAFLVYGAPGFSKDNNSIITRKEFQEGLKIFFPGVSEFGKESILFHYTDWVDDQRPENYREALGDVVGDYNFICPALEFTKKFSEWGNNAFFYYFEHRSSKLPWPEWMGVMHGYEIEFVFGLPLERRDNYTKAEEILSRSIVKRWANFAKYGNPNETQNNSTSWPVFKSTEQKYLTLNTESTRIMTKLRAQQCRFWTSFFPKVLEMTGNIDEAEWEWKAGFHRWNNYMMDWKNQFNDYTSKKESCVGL
acetylcholinesterase (AChE), sequence (P22303 32-614, species assumed): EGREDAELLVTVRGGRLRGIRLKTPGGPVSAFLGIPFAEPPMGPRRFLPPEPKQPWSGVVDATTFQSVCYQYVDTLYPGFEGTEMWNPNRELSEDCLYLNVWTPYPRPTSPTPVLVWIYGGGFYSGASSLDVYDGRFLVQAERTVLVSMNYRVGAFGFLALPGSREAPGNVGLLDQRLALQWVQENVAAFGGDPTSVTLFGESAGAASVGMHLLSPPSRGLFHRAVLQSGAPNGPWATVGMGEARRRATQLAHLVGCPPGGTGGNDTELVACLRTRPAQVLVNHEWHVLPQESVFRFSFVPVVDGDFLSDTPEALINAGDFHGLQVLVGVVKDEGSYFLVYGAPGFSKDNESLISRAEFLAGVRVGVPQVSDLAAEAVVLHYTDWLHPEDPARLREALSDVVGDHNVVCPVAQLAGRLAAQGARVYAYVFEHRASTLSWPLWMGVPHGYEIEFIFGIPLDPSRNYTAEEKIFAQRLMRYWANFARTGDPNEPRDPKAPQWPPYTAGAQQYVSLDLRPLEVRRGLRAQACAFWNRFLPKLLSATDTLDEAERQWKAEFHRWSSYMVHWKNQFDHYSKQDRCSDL

Structure (SMILES) | % Early Apoptotic (MCF-7 cells [3]) | % Late Apoptotic (MCF-7 cells [3]) | % Necrotic (MCF-7 cells [3]) | apoptosis (early + late apoptotic cell percentage) A549 (A549 cells [4]) | % Early Apoptotic (A549 cells [4]) | % Late Apoptotic (A549 cells [4]) | % Necrotic (A549 cells [4]) | IC50 ([1]; Homo sapiens, MCF7) | SI MCF-7 (selectivity index) [1] | IC50 ([2]; Homo sapiens, A549) | SI A549 (selectivity index) [2] | IC50 [6] | % Viable (A549 cells [4]) | inhibition at 160 µM [7] | inhibition at 160 µM [8] | inhibition at 80 µg/mL [8] | also measured
N.N.[Cl][Pt][Cl] [Cisplatin, cisplatin, reference compound] | 2.8% | 27.1% | 28.1% | 40.2% | 14.9% | 25.3% | 6.7% | – | – | – | – | – | – | – | – | – | IC50 [1]: 100 ± 3.3 µM; IC50 [2]: 108 ± 11.8 µM; apoptosis (early + late apoptotic cell percentage) MCF-7 (MCF-7 cells [3]): 29.9%; DNA synthesis inhibition on A549 at IC50/2 (A549 cells [5]; IC50/2 concentration (4h 24.3 μM; cisplatin 54.2 μM)): 32.86%; DNA synthesis inhibition on A549 at IC50 (A549 cells [5]; IC50 concentration (4h 48.6 μM; cisplatin 108.3 μM)): 50.33%
O=C(COc1ccc2c(c1)CCCC2)NN=c1scc(-c2ccccc2)n1C1CCCCC1 [Compound 4a, N′-(3-Cyclohexyl-4-phenylthiazole-2(3H)-ylidene)-2-[(5,6,7,8-tetrahydronaphthalen-2-yl)oxy]acetohydrazide] | – | – | – | over 50% | 7.4% | 48.3% | 12.8% | > 1000 µM | < 0.2 | 158 ± 14.8 µM | 1.3 | 206 ± 15.3 µM | 31.5% | 38.3 ± 2.18% | 28 ± 1.88% | – | –
COc1ccc(-c2csc(=NNC(=O)COc3ccc4c(c3)CCCC4)n2C2CCCCC2)cc1 [Compound 4b, N′-[3-Cyclohexyl-4-(4-methoxyphenyl)thiazole-2(3H)-ylidene]-2-[(5,6,7,8-tetrahydronaphthalen-2-yl)oxy]acetohydrazide] | 0.7% | 29.1% | 63.8% | 73.6% | 6.6% | 67.0% | 15.6% | 69.2 ± 5.8 µM | 0.8 | 138 ± 7.2 µM | 0.4 | 55.7 ± 1.2 µM | 10.9% | 11.1 ± 1.48% | 15.9 ± 1.72% | – | apoptosis (early + late apoptotic cell percentage) MCF-7 (MCF-7 cells [3]): 29.8%; % Viable (MCF-7 cells [3]): 6.3%; inhibition at 69.2 µM (MCF-7 cells [9]; [10]): 48.5%; DNA synthesis inhibition on MCF-7 at IC50/2 (MCF-7 cells [9]): 31.39%
O=C(COc1ccc2c(c1)CCCC2)NN=c1scc(-c2ccccc2)n1-c1ccccc1 [Compound 4c, N′-[3,4-Diphenylthiazole-2(3H)-ylidene]-2-[(5,6,7,8-tetrahydronaphthalen-2-yl)oxy]acetohydrazide] | – | – | – | – | – | – | – | 297 ± 46.6 µM | > 3.4 | > 1000 µM | – | > 1000 µM | – | 19.3 ± 1.87% | 16.48 ± 0.08% | – | –
Cc1ccc(-c2csc(=NNC(=O)COc3ccc4c(c3)CCCC4)n2-c2ccccc2)cc1 [Compound 4d, N′-[3-Phenyl-4-(4-methylphenyl)thiazole-2(3H)-ylidene]-2-[(5,6,7,8-tetrahydronaphthalen-2-yl)oxy]acetohydrazide] | 1.1% | 12.1% | 36.1% | – | – | – | – | 71.8 ± 12.5 µM | > 13.9 | > 1000 µM | – | > 1000 µM | – | 43.2 ± 1.56% | 33.2 ± 2.38% | – | % Viable (MCF-7 cells [3]): 50.7%; inhibition at 71.8 µM (MCF-7 cells [9]; [10]): 72.2%; DNA synthesis inhibition on MCF-7 at IC50/2 (MCF-7 cells [9]): 47.75%
COc1ccc(-c2csc(=NNC(=O)COc3ccc4c(c3)CCCC4)n2-c2ccccc2)cc1 [Compound 4e, N′-[3-Phenyl-4-(4-methoxyphenyl)thiazole-2(3H)-ylidene]-2-[(5,6,7,8-tetrahydronaphthalen-2-yl)oxy]acetohydrazide] | – | – | – | – | – | – | – | 91.4 ± 9.8 µM | > 10.9 | 708 ± 83.3 µM | > 1.4 | > 1000 µM | – | 10.8 ± 0.94% | – | < 0% | apoptosis (early + late apoptotic cell percentage) MCF-7 (MCF-7 cells [3]): 32.5%
O=C(COc1ccc2c(c1)CCCC2)NN=c1scc(-c2ccc(Br)cc2)n1-c1ccccc1 [Compound 4f, N′-[3-Phenyl-4-(4-bromophenyl)thiazole-2(3H)-ylidene]-2-[(5,6,7,8-tetrahydronaphthalen-2-yl)oxy]acetohydrazide] | – | – | – | over 41.5% | 16.5% | 29.3% | 6.5% | 281 ± 56.2 µM | 0.5 | 54.3 ± 6.8 µM | 2.7 | 147 ± 5.4 µM | 47.7% | 42.9 ± 2.84% | – | < 0% | –
O=C(COc1ccc2c(c1)CCCC2)NN=c1scc(-c2ccc(Cl)cc2)n1-c1ccccc1 [Compound 4g, N′-[3-Phenyl-4-(4-chlorophenyl)thiazole-2(3H)-ylidene]-2-[(5,6,7,8-tetrahydronaphthalen-2-yl)oxy]acetohydrazide] | – | – | – | over 41.5% | 18.7% | 26.0% | 5.8% | 483 ± 31.2 µM | 0.5 | 28.6 ± 4.1 µM | 7.8 | 224 ± 20.5 µM | 49.4% | 24.4 ± 1.2% | – | < 0% | –
O=C(COc1ccc2c(c1)CCCC2)NN=c1scc(-c2cccc([N+](=O)[O-])c2)n1-c1ccccc1 [Compound 4i, N′-[3-Phenyl-4-(3-nitrophenyl)thiazole-2(3H)-ylidene]-2-[(5,6,7,8-tetrahydronaphthalen-2-yl)oxy]acetohydrazide] | – | – | – | – | – | – | – | > 1000 µM | – | > 1000 µM | – | > 1000 µM | – | 41.85 ± 0.23% | – | < 0% | –
O=C(COc1ccc2c(c1)CCCC2)NN=c1scc(-c2ccc([N+](=O)[O-])cc2)n1-c1ccccc1 [Compound 4j, N′-[3-Phenyl-4-(4-nitrophenyl)thiazole-2(3H)-ylidene]-2-[(5,6,7,8-tetrahydronaphthalen-2-yl)oxy]acetohydrazide] | – | – | – | over 41.5% | 11.2% | 30.3% | 11.4% | > 1000 µM | – | 49 ± 1.41 µM | > 20.4 | > 1000 µM | 47.0% | 45 ± 1.6% | – | < 0% | –
O=C(COc1ccc2c(c1)CCCC2)NN=c1scc(-c2cccc(Cl)c2Cl)n1-c1ccccc1 [Compound 4k, N′-[3-Phenyl-4-(2,3-dichlorophenyl)thiazole-2(3H)-ylidene]-2-[(5,6,7,8-tetrahydronaphthalen-2-yl)oxy]acetohydrazide] | 2.4% | 8.9% | 34.4% | – | – | – | – | 153 ± 27.5 µM | 1.1 | > 1000 µM | – | 165 ± 11 µM | – | 15.2 ± 1.99% | – | < 0% | % Viable (MCF-7 cells [3]): 54.3%
